Experimental findings from ChEMBL document CHEMBL6114959, “Modeling, synthesis and cell-based evaluation of pyridine-substituted analogs of CD3254 and fluorinated analogs of CBt-PMN as novel therapeutics” (Bioorg Med Chem, 2025) are described below.

Structures are written as SMILES.

A short description of series [1]: Mutagenicity in Saccharomyces cerevisiae D7 incubated for 3 hrs. The series is classed as toxicity.
Series [2] is described as follows: (§1) Cytotoxicity in Saccharomyces cerevisiae D7 incubated for 3 hrs. Format: toxicity, organism-based. The note with it: Saccharomyces cerevisiae D7 cells.
A further series has as its system Saccharomyces cerevisiae. The series is described as §1. Format: toxicity, organism-based. The note with it: in vivo, 3 h.

`Cc1cc2c(cc1-n1c(C(F)(F)F)nc3cc(C(=O)O)ccc31)C(C)(C)CCC2(C)C`: the Activity result in series [1] is given as “Non-toxic”. The compound further showed a CC50 at 3 h in series [2] of 193 µM.

`Cc1cc2c(cc1-c1cc(/C=C/C(=O)O)cnc1C)C(C)(C)CCC2(C)C`: in series [1], the Activity entry is recorded as “Non-toxic”. For the same compound, it took 825 µM to reach half-maximal cytotoxicity in series [2] (CC50 at 3 h).

As for `C=C(c1ccc(C(=O)O)cc1)c1cc2c(cc1C)C(C)(C)CCC2(C)C` [BEXAROTENE], the Activity result (in series [1]; with Saccharomyces cerevisiae) was “Non-toxic” each time.

As for `Cc1cnc(/C=C/C(=O)O)cc1-c1cc2c(cc1C)C(C)(C)CCC2(C)C`, the Activity result in series [1] was “Non-toxic”. In series [2], this compound came in with a CC50 at 3 h of 228 µM.

`Cc1cc2c(cc1-c1nc(/C=C/C(=O)O)ccc1C)C(C)(C)CCC2(C)C`: the Activity entry in series [1] is on record as “Non-toxic”. The same compound showed a CC50 at 3 h in series [2] of 228 µM.

`Cc1cc2c(cc1-c1cncc(/C=C/C(=O)O)c1)C(C)(C)CCC2(C)C`: the Activity entry in series [1] is on record as “Non-toxic”. In series [2], the CC50 at 3 h was found to be 440 µM.
